Converted amounts (≈) assume the structure as drawn. “And” between values parts separate entries of the source, which are not always exact repeats. Equal values may be shown once. Read-outs that look alike come from different tables or passages of the source.
Columns and labels:
Assay type in all cases: cell-based
[1] = test system: Staphylococcus aureus (ATCC 6538); test: MBC determination by subculturing wells with no visible growth onto agar plates; details: for MBC/MIC ratio / bactericidal or bacteriostatic effect (from MBC/MIC ratio): S. aureus; for MBC: Staphylococcus aureus, ATCC6538
Procedure: MBCs were determined to estimate bacterial survival in wells with no visible growth after 24 h by subculturing onto agar plates to count the number of colony-forming-units (CFU/mL).
In order to determine whether the growth inhibition observed against S. aureus was relevant either of a bactericidal or a bacteriostatic effect, the ratio MBC/MIC was calculated.

[2] = test system: Staphylococcus aureus strain ATCC 6538; test: MIC determination by twofold dilution in microplates against Staphylococcus aureus; details: for MIC: Staphylococcus aureus
Procedure: Antimicrobial activity was tested by inhibition of growth of Gram positive bacteria Staphylococcus aureus strain ATCC 6538. All extracts and bacterial isolates from the sponge were screened for this antibacterial activity. Extracts and bacterial strains were also tested against gram negative gamma-proteobacteria (including Vibrios) and alpha-proteobacteria (Rhodobacterales), against Gram positive Bacillales (including Bacillus sp.) and against the yeast Candida albicans.
MICs of each of the compounds 1-9 according to the invention and of commercial methyl- and propyl parabens of the prior art were determined by a twofold dilution method from an initial 100 μg/mL concentration. […] Microplates were incubated for 24 hours at 30° C. with shaking (500 rpm) and optical density at 600 nm was read to estimate bacterial growth. The methyl- and propyl parabens of the prior art were obtained from the company Interchimie in Bobigny, France. […]
The results are reported in the following table 3 in which the MIC is reported in μg/ml and expressed, as in table 1, as the interval a-b, where a is the highest concentration tested at which microorganism are growing and b the lowest concentration that causes 100% growth inhibition.

[3] = test system: Microbulbifer sp. strain L4-N2; test: Antibiotic resistance/sensitivity of bacteria of the strain L4-N2; details: kanamycine 30UI; ceftazidime 30 μg
Procedure: Bacteria of the strain L4-N2 are gram negative, aerobic, rod-shaped, and approximately 1 μm wide by 5 to 7 μm long. They form smooth, convex and mucoid colonies, and produce a non-diffusible brown pigment. They use glucose and display beta-galactosidase, catalase, and gelatinase activities. They are resistant to ampicillin, penicillin and oxacillin and sensitive to kanamycine (30UI) and ceftazidime (30 μg).

[4] = S. aureus ATCC 6538, lowest concentration yielding colony counts <0.1% of the initial inoculum, read-out: MBC
[5] = ATCC6538, S. aureus ATCC 6538, 24 hours at 30° C., interval a-b (a highest concentration with growth, b lowest with 100% growth inhibition), triplicate, read-out: MIC
[6] = ATCC6538, S. aureus ATCC 6538, 24 hours at 30° C., interval a-b, triplicate, read-out: MIC

Compound	MBC/MIC ratio [1]	MIC [2, 5] [µM]	MIC [2, 6] [µg/mL]	MBC [1, 4] [µg/mL]	MBC [1] [µg/mL]	MIC ([2]; ATCC6538, 24 h)	bactericidal or bacteriostatic effect (from MBC/MIC ratio) [1]	factor of enhancement of antimicrobial activity by unsaturation of the alkyl chain (compound 9 vs compound 8) ([2]; S. aureus, compared MIC values)	resistance or sensitivity of strain L4-N2 bacteria to the antibiotic [3]
CCOC(=O)c1ccc(O)cc1 [Compound 1, 4-Hydroxy-benzoic acid ethyl ester]	>16	> 602	> 100	> 100					
CCCCOC(=O)c1ccc(O)cc1 [Compound 2, 4-Hydroxy-benzoic acid butyl ester]	>16				> 100	129 µM to 258 µM and 25 µg/mL to 50 µg/mL			
CCCCCCCCOC(=O)c1ccc(O)cc1 [Compound 3, 4-Hydroxy-benzoic acid octyl ester]	2	100 to 200	25 to 50	50 to 100 (≈ 200 to 399 µM)			bactericidal (If MBC/MIC is less than 4, the compound is bactericidal)		
CCCCCCCCCCOC(=O)c1ccc(O)cc1 [Compound 4, 4-Hydroxy-benzoic acid decyl ester]	16	2.8 to 5.6	0.78 to 1.56	12.5 to 25 (≈ 44.9 to 89.8 µM)			bacteriostatic (if MBC/MIC is between 8 and 16 and above 16, the compound is bacteriostatic)		
CC1(C)S[C@@H]2[C@H](NC(=O)[C@H](N)c3ccccc3)C(=O)N2[C@H]1C(=O)O [ampicillin]									resistant
CC(C)(O/N=C(\C(=O)N[C@@H]1C(=O)N2C(C(=O)[O-])=C(C[n+]3ccccc3)CS[C@H]12)c1csc(N)n1)C(=O)O [ceftazidime]									sensitive
NC[C@H]1O[C@H](O[C@H]2[C@H](O)[C@@H](O[C@H]3O[C@H](CO)[C@@H](O)[C@H](N)[C@H]3O)[C@H](N)C[C@@H]2N)[C@H](O)[C@@H](O)[C@@H]1O [kanamycine]									sensitive
Cc1onc(-c2ccccc2)c1C(=O)N[C@@H]1C(=O)N2[C@@H]1SC(C)(C)[C@@H]2C(=O)O [oxacillin]									resistant
penicillin									resistant

Further lines, with some results ahead:

MBC/MIC ratio [1]	MIC [2, 5] [µM]	MIC [2, 6] [µg/mL]	Compound	MBC [1, 4] [µg/mL]	MBC [1] [µg/mL]	MIC ([2]; ATCC6538, 24 h)	bactericidal or bacteriostatic effect (from MBC/MIC ratio) [1]	factor of enhancement of antimicrobial activity by unsaturation of the alkyl chain (compound 9 vs compound 8) ([2]; S. aureus, compared MIC values)	resistance or sensitivity of strain L4-N2 bacteria to the antibiotic [3]
>16	85 to 170	25 to 50	CCCCCCCC(O)CCOC(=O)c1ccc(O)cc1 (stereo not shown) [Compound 5, 4-Hydroxy-benzoic acid 3-hydroxy-decyl ester]	> 100					
2	42.8 to 85.6	12.5 to 25	CC(C)CCCCCCCCOC(=O)c1ccc(O)cc1 [Compound 6]	25 to 50 (≈ 85.5 to 171 µM)			bactericidal (If MBC/MIC is less than 4, the compound is bactericidal)		
2	40.5 to 81.1	12.5 to 25	CC(C)CCCCCC(O)CCOC(=O)c1ccc(O)cc1 (stereo not shown) [Compound 7]	25 to 50 (≈ 81.1 to 162 µM)			bactericidal (If MBC/MIC is less than 4, the compound is bactericidal)		
>16	81.6 to 163	25 to 50	CCCCCCCCCCCCOC(=O)c1ccc(O)cc1 [Compound 8, 4-Hydroxy-benzoic acid dodecyl ester]	> 100					
8	20.5 to 41.1	6.25 to 12.5	CCCCCC/C=C/CCCCOC(=O)c1ccc(O)cc1 [Compound 9, 4-Hydroxy-benzoic acid dodec-5-enyl ester]	50 to 100 (≈ 164 to 328 µM)			bacteriostatic (if MBC/MIC is between 8 and 16 and above 16, the compound is bacteriostatic)	4	
	329 to 658	50 to 100	COC(=O)c1ccc(O)cc1 [Methyl paraben, reference compound]	> 100					
	278 to 556	50 to 100	CCCOC(=O)c1ccc(O)cc1 [Propyl paraben, reference compound]	> 100					
